According to ChEMBL document CHEMBL1201862, “PubChem BioAssay data set” (2004):
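All cell lines were grown in 96-well plates and treated with compound for 48 hours. Here, GI50 denotes the concentration required for 50% inhibition of growth.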 Activity calls are given as the source filed them. Cut-off read from the data, not from the text of the source: active = GI50 up to about 1.1 µM and inactive = higher.

How the values were obtained:
Assay in all cases: growth of human tumour cells (NCI), 48 h
[1] = tested on: HCT-116
[2] = tested on: SN12C
[3] = tested on: HT-29
[4] = tested on: SK-MEL-2
[5] = tested on: IGROV-1
[6] = tested on: A498
[7] = tested on: ACHN
[8] = tested on: EKVX
[9] = tested on: SF-295
[10] = tested on: SNB-19
[11] = tested on: NCI-H23
[12] = tested on: KM12
[13] = tested on: COLO 205
[14] = tested on: CAKI-1
[15] = tested on: PC-3
[16] = tested on: MDA-MB-435
[17] = tested on: NCI/ADR-RES
[18] = tested on: MCF7
[19] = tested on: T47D

Measured: GI50

COc1cccc(NC(=O)CC(=O)N2N=C(n3ccc4ccccc43)CC2c2ccccc2)c1 (stereo not drawn)
inactive: [1] > 100 µM | [2] > 100 µM | [3] > 100 µM | [4] > 100 µM | [5] > 100 µM | [6] > 100 µM | [7] > 100 µM | [8] > 100 µM | [9] > 100 µM | [10] > 100 µM | [11] > 100 µM | [12] > 100 µM | [13] > 100 µM

C=C(COC(C)=O)CC(/C=C(\C)CC/C=C(\C)CO)OC(C)=O (stereo not drawn)
inactive: [1] > 100 µM | [2] > 100 µM | [3] > 100 µM | [4] > 100 µM | [5] > 100 µM | [6] > 100 µM | [7] > 100 µM | [8] > 100 µM | [9] > 100 µM | [10] > 100 µM | [11] > 100 µM | [12] > 100 µM | [13] > 100 µM

O=C(O)C1=NN=C(C(=O)O)NN1
inactive: [1] > 100 µM | [2] > 100 µM | [3] > 100 µM | [4] > 100 µM | [5] > 100 µM | [7] > 100 µM | [8] > 100 µM | [14] > 100 µM | [9] > 100 µM | [10] > 100 µM | [11] > 100 µM | [12] > 100 µM | [13] > 100 µM

O=C(/C=C/c1ccc([N+](=O)[O-])o1)N1CCN(Cc2ccccc2)CC1
inactive: [1] 10.8 µM | [2] 9.04 µM | [3] 5.81 µM | [5] 16.5 µM | [6] 15.7 µM | [7] 14.7 µM | [8] 22.4 µM | [14] 8.17 µM | [9] 15.3 µM | [10] 16.2 µM | [11] 5.93 µM | [12] 12.1 µM

CC(=O)N1CC(=O)NC1=S
inactive: [1] > 100 µM | [2] > 100 µM | [3] > 100 µM | [4] > 100 µM | [5] > 100 µM | [7] > 100 µM | [8] > 100 µM | [14] > 100 µM | [9] > 100 µM | [10] > 100 µM | [11] > 100 µM | [12] > 100 µM | [13] > 100 µM

CCC(=O)OC1CCn2c1nc1c2C(=O)C(C)=C(NC(C)=O)C1=N (stereo not drawn)
active: [1] 0.849 µM | [14] 0.653 µM
inactive: [2] 1.6 µM | [3] 1.61 µM | [4] 1.75 µM | [5] 2.29 µM | [6] 1.82 µM | [7] 1.77 µM | [8] 2.63 µM | [9] 2.02 µM | [10] 5.26 µM | [11] 1.77 µM | [12] 2.11 µM | [13] 1.72 µM

Nc1nc(Cl)cc(NCCCCCNc2cc(Cl)nc(N)n2)n1
inactive: [1] 30.3 µM | [2] > 100 µM | [3] > 100 µM | [4] > 100 µM | [5] > 100 µM | [7] 15.2 µM | [8] 86.5 µM | [14] 17 µM | [9] 29.2 µM | [10] > 100 µM | [11] 55.5 µM | [12] > 100 µM | [13] > 100 µM

OC(C/C=N/Nc1ccccc1)(C(F)(F)Cl)C(F)(F)Cl
inactive: [1] 5.15 µM | [2] > 10 µM | [3] > 10 µM | [4] > 10 µM | [5] 6.76 µM | [15] 4.05 µM | [6] > 10 µM | [16] 7.35 µM | [7] 4.49 µM | [8] > 10 µM | [17] > 10 µM | [18] > 10 µM | [19] 7.53 µM | [14] 7.43 µM | [9] > 10 µM | [10] > 10 µM | [11] 7.23 µM | [12] > 10 µM | [13] > 10 µM

Nc1ncc(Cc2nn3c(COc4ccc(Cl)cc4)nnc3s2)s1
active: [7] 0.0543 µM
inactive: [1] > 100 µM | [2] > 100 µM | [3] > 100 µM | [4] > 100 µM | [5] > 100 µM | [15] > 100 µM | [16] > 100 µM | [8] > 100 µM | [17] > 100 µM | [18] > 100 µM | [19] > 100 µM | [14] > 100 µM | [9] > 100 µM | [10] > 100 µM | [11] > 100 µM | [12] 7.45 µM | [13] > 100 µM

Cc1cccc(C)c1NC(=O)CCC/C(CC(=O)c1ccc(F)cc1)=N\NC(=O)C(=O)NN
inactive: [1] > 100 µM | [2] > 100 µM | [3] > 100 µM | [4] > 100 µM | [5] > 100 µM | [6] > 100 µM | [7] > 100 µM | [8] > 100 µM | [14] > 100 µM | [9] > 100 µM | [10] > 100 µM | [11] > 100 µM | [12] > 100 µM | [13] > 100 µM

COC(=O)c1c2cccccc-2c(Cc2c3cccccc-3c(C(=O)OC)c2O)c1O
inactive: [1] > 100 µM | [2] > 100 µM | [3] > 100 µM | [4] > 100 µM | [5] > 100 µM | [6] > 100 µM | [7] > 100 µM | [8] > 100 µM | [14] > 100 µM | [9] > 100 µM | [10] > 100 µM | [11] > 100 µM | [12] > 100 µM | [13] > 100 µM

O=C(Cn1ccnc1[N+](=O)[O-])c1ccccc1
inactive: [2] > 100 µM | [3] > 100 µM | [4] > 100 µM | [5] > 100 µM | [6] > 100 µM | [7] > 100 µM | [8] > 100 µM | [14] > 100 µM | [9] > 100 µM | [10] > 100 µM | [11] > 100 µM | [12] > 100 µM | [13] > 100 µM

CCOC(OCC)c1ccc(/C=C/c2cc(OC)c(OC)c(OC)c2)cc1
inactive: [1] 17 µM | [2] 18.9 µM | [3] 16.9 µM | [5] 32.7 µM | [6] 18.8 µM | [7] 37.8 µM | [8] 33 µM | [14] 24.9 µM | [9] 19.2 µM | [10] 29 µM | [12] > 10 µM | [13] 18.7 µM

CC1Cc2c(N)nc(NN)nc2NC1=O (stereo not drawn)
inactive: [1] > 100 µM | [2] > 100 µM | [3] > 100 µM | [5] > 100 µM | [7] > 100 µM | [8] > 100 µM | [9] > 100 µM | [10] > 100 µM | [11] > 100 µM | [12] > 100 µM | [13] > 100 µM

CC[N+](C)(CC)CC(C)(C)C(=O)/C=C/c1ccc(/C=C/C(=O)C(C)(C)C[N+](C)(CC)CC)cc1
inactive: [1] > 100 µM | [2] > 100 µM | [3] > 100 µM | [5] > 100 µM | [6] > 100 µM | [7] > 100 µM | [8] > 100 µM | [14] > 100 µM | [9] > 100 µM | [10] > 100 µM | [11] > 100 µM | [12] > 100 µM | [13] > 100 µM

NC(=O)c1ccccc1NC(=O)C(=O)C(C(=O)c1ccc(Cl)c(Cl)c1)C1OC(=O)c2ccccc21 (stereo not drawn)
inactive: [1] 18.7 µM | [2] 44.4 µM | [3] 34.8 µM | [5] 60.1 µM | [6] 31.8 µM | [7] 59.3 µM | [8] > 100 µM | [14] 52.6 µM | [10] 45 µM | [11] 39.5 µM | [12] 60.4 µM | [13] 41.8 µM

CCOC(=O)/C(C#N)=C(O)/C(=C\c1ccc(Br)cc1)NC(=O)c1ccccc1
inactive: [1] 16.4 µM | [2] > 100 µM | [3] > 100 µM | [5] > 100 µM | [6] > 100 µM | [7] > 100 µM | [8] > 100 µM | [14] > 100 µM | [9] > 100 µM | [10] > 100 µM | [11] > 100 µM | [12] > 100 µM | [13] > 100 µM

O=C1CC[C@@H](S(=O)(=O)c2ccccc2)[C@H](/C=C/c2ccccc2)O1
inactive: [1] > 100 µM | [2] > 100 µM | [3] > 100 µM | [5] > 100 µM | [6] > 100 µM | [7] > 100 µM | [8] > 100 µM | [9] > 100 µM | [10] > 100 µM | [11] > 100 µM | [12] > 100 µM | [13] > 100 µM

CCN(CC)C(=S)SCC(=O)Nc1nc2c(s1)CCCC2
inactive: [1] 64.3 µM | [2] > 100 µM | [3] 59.8 µM | [4] > 100 µM | [5] > 100 µM | [6] > 100 µM | [7] > 100 µM | [9] 85.5 µM | [10] > 100 µM | [11] 74.1 µM | [12] > 100 µM | [13] 95.1 µM

Cn1cc2ccccc2c1-c1nc(F)nc(OCC(=O)[C@H]2CCC3[C@@H]4CCC5=CC(=O)CC[C@]5(C)C4[C@@H](O)C[C@@]32C)n1 (stereo partly drawn)
inactive: [1] 11.1 µM | [2] 15.7 µM | [3] 21.6 µM | [4] 13.2 µM | [5] 7.48 µM | [6] 17.3 µM | [7] 17.7 µM | [8] 23.4 µM | [14] 3.92 µM | [9] 23.8 µM | [10] 19.4 µM | [11] 7.78 µM | [12] 16.6 µM | [13] 20 µM
